# Test results: patent publication US11207379B2, “Peptides with anti-cancer activity” (IDP DISCOVERY PHARMA, S.L., priority 2016, dated 2021)
# System: A549 cells
# Assay: Annexin V assay by flow cytometry
# Type: cell-based
# Details: A549 cells
# Experimental: Miltenyi Biotec Annexin V-FITC Kit was used. To detect apoptosis in early stage Phosphatidylserine in plasmatic membrane localization was measured, though the calcium dependent reaction with Annexine V. Annexin V molecules were labelled with different fluorophores (FITC) and analyzed by FACS. To detect apoptosis in late stage DNA-intercalating agents, such Propidium iodide (PI) were used.
# Cells were seeded at a density range of 150000-30000 cells/well in 12 wells plates, and incubated at 37° C. in the incubator under CO2 atmosphere. After 24 h, […] A549, HL-60 and MM.1S, at IC30 and/or IC80, with compounds IDP-S09 and IL-09, in cell lines HL-60 and MM.1S with compound IDP-S04 and in cell line A549 with compounds IDP-S02 and IDP-S03. Staurosporine and compound 100258-F4 (Sigma) were used as positive control and reference compound, respectively.
substance,measurement,value
RQRRNXLKRAFAXLRDQ-OH [IDP-S03],"apoptosis induction (Annexin V by FACS), in words",apoptosis induction is detected after 4 h at both IC30 and IC80
